Laboratory results as given in patent publication US10377774B2 (JINAN UNIVERSITY, priority 2013, dated 2019).
Marks after values point to notes of the source that are not given here.

Key:
LOVO xenografts = LOVO xenografts in nude mice; type: in vivo; settings: LOVO xenograft nude mice
In short: (§1)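 Female BALB/nu/nu mice received 1×10^7 cells subcutaneously and were randomized at 70–100 mm^3, six per group. Compounds were given at 1 mg/kg i.p. every two days for 8 doses, with saline as control. Tumor volume was calculated as V=½(ab^2), and body weight was monitored.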

[1] = tested on: human breast cancer cell line MDA-MB-231; test: MTT cell growth inhibition, MDA-MB-231; type: cell-based; settings: Homo sapiens; MDA-MB-231, MTT assay, 72 h; read-out: IC50, growth of tumor cell line
From the text: (§2) Experimental method: Cell lines (human non-small-cell lung cancer cell line A549, human colon cancer cell line LOVO, human nasopharyngeal carcinoma cell line CNE-2, human liver cancer cell line HepG2, human cervical carcinoma cell line Hela, human breast cancer cell lines MCF-7 and MDA-MB-231, human gastric carcinoma cell line NCI-N87, human prostatic cancer cell lines PC-3 and DU145, human leukemia cell line K562, human melanoma cell line A375, human neuroblastoma cell line SH-SY5H, human promyelocytic leukemia cell line HL-60, 5-FU-resistant human hepatocellular carcinoma cell line BEL-7402/5-Fu, doxorubicin-resistant hepatocellular carcinoma cell line HepG2/ADM, doxorubicin-resistant human breast cancer cell lines MCF-7/ADR) at logarithmic phase were resuspended in RPMI 1640 medium (containing 10% fetal bovine serum, 100 U/mL penicillin-streptomycin). Then, 100 μL of cells (cell concentration was 5×10^5/mL) were seeded into 96 wells plate. After 24 h incubation at 37° C. with 5% CO2, tested compounds were added (the control group without compound) for an additional 72 h incubation. After that, 30 μL of MTT [3-(4,5-Dimethylthiazol-2-yl)-2,5-diphenyltetrazolium bromide] solution (5 mg/mL) was added into each well and incubated for another 4 h at 37° C. and then the formazan crystals were solubilized with 100 μL DMSO. Finally, absorbance of each well was determined at 570 nm by a microplate reader (Thermo).
(§3) The concentration required to inhibit cell growth by 50% (IC50) was calculated from survival curves.

[2] = MTT cytotoxicity on normal cells, HUVEC; settings: human, HUVEC (human umbilical vein endothelial cells)
Experimental: Then, 100 μL of cells (cell concentration was 5×10^5/mL) were seeded into 96 wells plate. After 24 h incubation at 37° C. with 5% CO2, tested compounds were added (the control group without compound) for an additional 72 h incubation. After that, 30 μL of MTT [3-(4,5-Dimethylthiazol-2-yl)-2,5-diphenyltetrazolium bromide] solution (5 mg/mL) was added into each well and incubated for another 4 h at 37° C. and then the formazan crystals were solubilized with 100 μL DMSO. Finally, absorbance of each well was determined at 570 nm by a microplate reader (Thermo).
The standard curve was drew with compound concentrations as the abscissa and cell growth inhibition rates as the ordinate. The concentration required to inhibit cell growth by 50% (IC50) was calculated from survival curves.
Experimental method: In vitro cytotoxicities of vinca alkaloids, hydrazinolyzed vinca alkaloids and vinca alkaloid dipeptide derivatives on human normal liver cells LO2 and human umbilical vein endothelial cells HUVEC were detected according to the method of Example 2.

[3] = tested on: human leukemia cell line K562; test: MTT cell growth inhibition, K562; type: cell-based; settings: Homo sapiens; K562, MTT assay, 72 h; read-out: IC50, growth of tumor cell line
[4] = tested on: human gastric carcinoma cell line NCI-N87; test: MTT cell growth inhibition, NCI-N87; type: cell-based; settings: Homo sapiens; NCI-N87, MTT assay, 72 h; read-out: IC50, growth of tumor cell line
[5] = tested on: human colon cancer cell line LOVO; test: MTT cell growth inhibition, LOVO; type: cell-based; settings: Homo sapiens; LOVO (FAPα positive), MTT assay, 72 h; read-out: IC50, growth of tumor cell line
From the text: as §2, §3

[6] = tested on: human neuroblastoma cell line SH-SY5H; test: MTT cell growth inhibition, SH-SY5H; type: cell-based; settings: Homo sapiens, Neuroblastoma cell, MTT assay, 72 h, read-out: IC50, growth of tumor cell line
From the text: as §2, §3

[7] = tested on: human breast cancer cell line MCF-7; test: MTT cell growth inhibition, MCF-7; type: cell-based; settings: Homo sapiens, MCF7; MCF-7, MTT assay, 72 h; read-out: IC50, growth of tumor cell line
From the text: as §2, §3

[8] = MTT cytotoxicity on normal cells, LO2; settings: human, LO2 cells (human normal liver cells)
[9] = tested on: human nasopharyngeal carcinoma cell line CNE-2; test: MTT cell growth inhibition, CNE-2; type: cell-based; settings: Homo sapiens; CNE-2, MTT assay, 72 h; read-out: IC50, growth of tumor cell line
From the text: as §2, §3

[10] = tested on: human promyelocytic leukemia cell line HL-60; test: MTT cell growth inhibition, HL-60; type: cell-based; settings: Homo sapiens; HL-60, MTT assay, 72 h; read-out: IC50, growth of tumor cell line
From the text: as §2, §3

MDA-MB-231 xenografts = MDA-MB-231 xenografts in nude mice; type: in vivo, BALB/nu/nu mice; settings: MDA-MB-231 xenograft nude mice
In short: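 Female BALB/nu/nu mice bearing subcutaneous MDA-MB-231 tumours (1×10^7 cells; 70–100 mm^3 at randomisation), six per group. Compounds given at 1 mg/kg i.p. every two days for 8 doses versus saline. Tumour volume (V=½ab^2) and body weight tracked.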

HepG2 xenografts = HepG2 xenografts in nude mice; type: in vivo; settings: HepG2 xenograft nude mice
In short: as §1

[11] = tested on: human non-small-cell lung cancer cell line A549; test: MTT cell growth inhibition, A549; type: cell-based; settings: Homo sapiens; A549, MTT assay, 72 h; read-out: IC50, growth of tumor cell line
From the text: as §2, §3

[12] = tested on: human liver cancer cell line HepG2; test: MTT cell growth inhibition, HepG2; type: cell-based; settings: Homo sapiens; HepG2, MTT assay, 72 h; read-out: IC50, growth of tumor cell line
[13] = tested on: human prostatic cancer cell line DU145; test: MTT cell growth inhibition, DU-145; type: cell-based; settings: Homo sapiens; DU-145, MTT assay, 72 h; read-out: IC50, growth of tumor cell line
HL-60 xenografts = HL-60 xenografts in nude mice; type: in vivo; settings: HL-60 xenograft nude mice
In short: as §1

Acute toxicity test = type: in vivo; settings: mouse, in vivo, ip; Kunming mice, injected intraperitoneally; read-out: LD50 (median lethal dose)
Experimental: Experimental method: Kunming mice were purchased from Guangdong Medical Experimental Animal Center, weighing 18-22 g, then randomly divided into several groups with 10 mice in each group. Different concentrations of VLB and vinca alkaloid dipeptide derivatives were injected intraperitoneally. Finally, the median lethal dose (LD50) was calculated according to the surviving animals.
LD50 was measured using the following formula:
LD50 (mg/kg)=The median lethal dose/body weight

[14] = tested on: 5-FU-resistant human hepatocellular carcinoma cell line BEL-7402/5-Fu; test: MTT cell growth inhibition, BEL-7402/5-Fu; type: cell-based; settings: Homo sapiens, Bel7402/5-FU, MTT assay, 72 h, read-out: IC50, growth of tumor cell line
From the text: as §2, §3

[15] = tested on: human melanoma cell line A375; test: MTT cell growth inhibition, A375; type: cell-based; settings: Homo sapiens, A-375; A375, MTT assay, 72 h; read-out: IC50, growth of tumor cell line
From the text: as §2, §3

K562 xenografts = K562 xenografts in nude mice; type: in vivo; settings: K562 xenograft nude mice
In short: as §1

[16] = tested on: human cervical carcinoma cell line Hela; test: MTT cell growth inhibition, Hela; type: cell-based; settings: Homo sapiens, MTT assay, 72 h, read-out: IC50, growth of tumor cell line
From the text: as §2, §3

[17] = tested on: doxorubicin-resistant hepatocellular carcinoma cell line HepG2/ADM; test: MTT cell growth inhibition, HepG2/ADM; type: cell-based, human; settings: Homo sapiens, MTT assay, 72 h, read-out: IC50, growth of tumor cell line
From the text: as §2, §3

[18] = 1 mg/kg i.p. every two days, 8 administrations

Question: Which results are given for `CC[C@]1(O)C[C@@H]2CN(CCc3c([nH]c4ccccc34)[C@@](C(=O)OC)(c3cc4c(cc3OC)N(C)[C@H]3[C@@](O)(C(=O)OC)[C@H](OC(C)=O)[C@]5(CC)C=CCN6CC[C@]43[C@@H]65)C2)C1` [Vinblastine, reference compound]?
Answer: Anti-tumor rate (%) (LOVO xenografts; 1 mg/kg): 44.60* %; Body weight (g) Post-dose (LOVO xenografts; 1 mg/kg): 19.6 ± 1.5 g; Tumor weight (LOVO xenografts; 1 mg/kg): 1.59 ± 0.51 g; Body weight (g) Pre-dose (LOVO xenografts; before dosing): 23.1 ± 1.4 g; IC50 [1]: 0.81 ± 0.35 nM; IC50 at 72 h [2]: 0.76 ± 0.13 nM; IC50 [3]: 0.72 ± 0.2 nM; IC50 [4]: 2.23 ± 0.43 nM; IC50 [5]: 1.2 ± 0.24 nM; IC50 [6]: 6.13 ± 0.51 nM; IC50 [7]: 3.67 ± 1.34 nM; IC50 at 72 h [8]: 0.34 ± 0.07 nM; IC50 [9]: 1.03 ± 0.07 nM; IC50 [10]: 5.21 ± 0.84 nM; Anti-tumor rate (%) (MDA-MB-231 xenografts; [18]): 53.26** %; Body weight (g) Post-dose (MDA-MB-231 xenografts; [18]): 18.3 ± 2.4 g; Tumor weight (MDA-MB-231 xenografts; [18]): 1.22 ± 0.35 g; Body weight (g) Pre-dose (MDA-MB-231 xenografts; before dosing): 20.7 ± 1.4 g; Anti-tumor rate (%) (HepG2 xenografts; 1 mg/kg): 42.75* %; Body weight (g) Post-dose (HepG2 xenografts; 1 mg/kg): 18.2 ± 1.8 g; Body weight (g) Pre-dose (HepG2 xenografts; before dosing): 21.9 ± 0.7 g; IC50 [11]: 2.31 ± 0.13 nM; IC50 [12]: 3.07 ± 0.12 nM; IC50 [13]: 0.78 ± 0.31 nM; Anti-tumor rate (%) (HL-60 xenografts; 1 mg/kg): 52.89** %; Body weight (g) Post-dose (HL-60 xenografts; 1 mg/kg): 16.2 ± 0.7 g; Tumor weight (HL-60 xenografts; 1 mg/kg): 0.98 ± 0.25 g; Body weight (g) Pre-dose (HL-60 xenografts; before dosing): 19.4 ± 1.0 g; LD50 (Acute toxicity test): 4 mg/kg; IC50 [14]: 25.8 ± 3.01 nM; IC50 [15]: 3.24 ± 0.39 nM; Anti-tumor rate (%) (K562 xenografts; 1 mg/kg): 49.81* %; Body weight (g) Post-dose (K562 xenografts; 1 mg/kg): 17.4 ± 0.4 g; Tumor weight (K562 xenografts; 1 mg/kg): 0.86 ± 0.10 g; Body weight (g) Pre-dose (K562 xenografts; before dosing): 21.9 ± 0.7 g; IC50 [16]: 4.34 ± 0.36 nM; IC50 [17]: 10.1 ± 1.12 nM
